The text below walks through data of US10000471B2, “Pyrazole P38 map kinase inhibitors” (Respivert Limited, priority 2010, dated 2018).

The target in data set [1] is T1, p38 MAPKα isoform (MAPK14) (Homo sapiens, UniProt Q16539).
T1 construct: purchased Invitrogen
In words: Enzyme inhibition assay (FRET, Z-LYTE), p38 MAPKα via MAPKAP-K2 activation. In kind it is biochemical. The settings on record: read-out: Enzyme Inhibition IC50 p38α. The method, then:
(§1) The enzyme inhibitory activities of compounds disclosed herein were determined by fluorescence resonance energy transfer (FRET) using synthetic peptides labelled with both donor and acceptor fluorophores (Z-LYTE, Invitrogen Ltd., Paisley, UK). Recombinant, phosphorylated p38 MAPKγ (MAPK12:Invitrogen) was diluted in HEPES buffer, mixed with the test compound at the desired final concentrations and incubated for 2 hr at RT. The FRET peptide (2 μM) and ATP (100 μM) were added to the enzyme/compound mixture and incubated for 1 hr. Development reagent (protease) was added for 1 hr prior to detection in a fluorescence microplate reader (Varioskan® Flash, ThermoFisher Scientific). The site-specific protease cleaves non-phosphorylated peptide only and eliminates the FRET signal. Phosphorylation levels of each reaction were calculated using the ratio of coumarin emission (donor) over fluorescein emission (acceptor) for which high ratios indicate high phosphorylation and low ratios indicate low phosphorylation levels. The percentage inhibition of each reaction was calculated relative to non-inhibited control and the 50% inhibitory concentration (IC50 value) then calculated from the concentration-response curve.
For the p38 MAPKα isoform (MAPK14: Invitrogen), enzyme activity was evaluated indirectly by determining the level of activation/phosphorylation of the down-stream molecule, MAPKAP-K2. The p38 MAPKα protein was mixed with the test compound for 2 hr at RT. […] Development reagent was then added and the mixture incubated for 1 hr before detection by fluorescence completed the assay protocol.

The next data set concerns the target T2, p38 MAPKγ (MAPK12) (Homo sapiens, UniProt P53778).
T2 construct: purchased Invitrogen
T2 sequence (P53778 1-367): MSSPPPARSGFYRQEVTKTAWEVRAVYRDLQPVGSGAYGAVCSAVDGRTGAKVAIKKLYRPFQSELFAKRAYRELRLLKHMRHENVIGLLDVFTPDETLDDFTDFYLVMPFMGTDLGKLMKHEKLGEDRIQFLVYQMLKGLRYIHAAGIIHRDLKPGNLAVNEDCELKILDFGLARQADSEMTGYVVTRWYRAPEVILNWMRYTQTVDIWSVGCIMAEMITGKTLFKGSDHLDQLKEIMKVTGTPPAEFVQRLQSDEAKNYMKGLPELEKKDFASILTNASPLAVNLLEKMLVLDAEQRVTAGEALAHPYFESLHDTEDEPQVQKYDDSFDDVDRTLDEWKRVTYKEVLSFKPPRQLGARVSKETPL
In words: Enzyme inhibition assay (FRET, Z-LYTE), p38 MAPKγ. In kind it is biochemical. The note with it: read-out: Enzyme Inhibition IC50 p38γ. The protocol: as §1

Data set [2] relates to TNFα release in THP-1 cells. Kind of data set: LPS-induced TNFα release in THP-1 cells. The format is cell-based, human. The note with it: Homo sapiens. The protocol: LPS-Induced TNFα Release in THP-1 Cells
THP-1 cells, a human monocytic cell line, were stimulated with 3 μg/mL of LPS (from E. Coli; 0111:B4, Sigma) for 4 hr and the supernatant collected for determination of the TNFα concentration by sandwich ELISA (Duo-set, R&D systems). The inhibition of TNFα production was calculated at each concentration by comparison with vehicle control. The 50% inhibitory concentration (IC50) was determined from the resultant concentration-response curve.

In data set [3] the test system is TNFα release in d-U937 cells. In words: LPS-induced TNFα release in d-U937 cells. In kind it is cell-based, human. The settings on record: Homo sapiens, dU937, relative to 10 μg/mL BIRB796, read-out: LPS/TNFα REC50 d-U937. The method, then:
(§2) LPS-Induced TNFα/IL-8 Release in d-U937 Cells
(§3) U937 cells, a human monocytic cell line, were differentiated to macrophage-type cells by incubation with phorbol myristate acetate (PMA; 100 ng/ml) for 48 to 72 hr. Cells were pre-incubated with final concentrations of test compound for 2 hr and were then stimulated with 0.1 μg/mL of LPS (from E. Coli: O111:B4, Sigma) for 4 hr. The supernatant was collected for determination of TNFα and IL-8 concentrations by sandwich ELISA (Duo-set, R&D systems). The inhibition of TNFα production was calculated as a percentage of that achieved by 10 μg/mL of BIRB796 at each concentration of test compound by comparison against vehicle control. The relative 50% effective concentration (REC50) was determined from the resultant concentration-response curve. The inhibition of IL-8 production was calculated at each concentration of test compound by comparison with vehicle control. The 50% inhibitory concentration (IC50) was determined from the resultant concentration-response curve.

The test system of data set [4] is IL-8 release in d-U937 cells. Kind of data set: LPS-induced IL-8 release in d-U937 cells. The format is cell-based, human. The settings on record: Homo sapiens, dU937. The protocol:
as §2, §3

Data set [5] concerns ICAM-1 induction in BEAS2B cells. Kind of data set: Poly I:C-induced ICAM-1 induction in BEAS2B cells. The settings on record: Homo sapiens, BEAS-2B, read-out: PolyIC/ICAM1 IC50 BEAS2B. The format is cell-based, human. The method, then:
Poly I:C-Induced ICAM-1 Induction in BEAS2B Cells
Poly I:C (1 μg/mL) (Invivogene Ltd., San Diego, Calif.) was transfected into BEAS2B cells (human bronchial epithelial cells, ATCC) with Oligofectamine (Invitrogen, Carlsbad, Calif.). Cells were pre-incubated with final concentrations of test compounds for 2 hr and the level of ICAM1 expression on the cell surface was determined by cell-based ELISA. At a time point 18 hr after poly I:C transfection, cells were fixed with 4% formaldehyde in PBS and then endogenous peroxidase was quenched by the addition of 0.1% sodium azide and 1% hydrogen peroxide. Cells were washed with wash-buffer (0.1% Tween in PBS: PBS-Tween). and after blocking the wells with 5% milk in PBS-Tween for 1 hr, the cells were incubated with anti-human ICAM-1 antibody (Cell Signaling Technology, Danvers, Mass.) in 1% BSA PBS overnight at 4° C. The cells were washed with PBS-Tween and incubated with the secondary antibody (HRP-conjugated anti-rabbit IgG, Dako Ltd., Glostrup, Denmark). The ICAM-1 signal was detected by adding substrate and reading the absorbance at 450 nm against a reference wavelength of 655 nm using a spectrophotometer. The cells were then washed with PBS-Tween and total cell numbers in each well were determined by reading absorbance at 595 nm after Crystal Violet staining and elution by 1% SDS solution. The measured OD 450-655 readings were corrected for cell number by dividing with the OD595 reading in each well. The inhibition of ICAM-1 expression was calculated at each concentration of test compound by comparison with vehicle control. The 50% inhibitory concentration (IC50) was determined from the resultant concentration-response curve.

Data set [6] deals with Differentiated U937 cells. Kind of data set: Cell viability MTT assay. The format is cell-based, human. The settings on record: negative = apparent increase in viability; for MTT Assay (Viability) 4 h d-U937, percentage loss of cell viability: 4 hr in 5% FCS; for MTT Assay (Viability) 24 h d-U937, percentage loss of cell viability: 24 h in 10% FCS. The method, then:
Differentiated U937 cells were pre-incubated with each test compound under two protocols: the first for 4 hr in 5% FCS and the second in 10% FCS for 24 h. The supernatant was replaced with 200 μL of new media and 10 μL of MTT stock solution (5 mg/mL) was added to each well. After incubation for 1 hr the media were removed, 200 μL of DMSO was added to each well and the plates were shaken lightly for 1 hr prior to reading the absorbance at 550 nm. The percentage loss of cell viability was calculated for each well relative to vehicle (0.5% DMSO) treatment. Consequently an apparent increase in cell viability for drug treatment relative to vehicle is tabulated as a negative percentage.

T1 sequence (Q16539 whole entry, canonical isoform): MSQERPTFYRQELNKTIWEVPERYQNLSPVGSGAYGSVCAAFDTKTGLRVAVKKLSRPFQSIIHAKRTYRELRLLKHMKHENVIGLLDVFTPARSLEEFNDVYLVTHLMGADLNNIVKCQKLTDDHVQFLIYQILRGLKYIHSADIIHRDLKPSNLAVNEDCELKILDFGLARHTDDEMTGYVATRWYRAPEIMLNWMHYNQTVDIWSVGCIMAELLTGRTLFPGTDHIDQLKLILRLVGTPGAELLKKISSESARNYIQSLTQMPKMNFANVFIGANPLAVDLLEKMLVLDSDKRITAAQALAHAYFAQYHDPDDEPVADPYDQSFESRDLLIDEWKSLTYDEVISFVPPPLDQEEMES

As to `COCC(=O)Nc1cc(COc2ccc(NC(=O)Nc3cc(C(C)(C)C)nn3-c3ccc(OC)cc3)c3cccnc23)ccn1` [Example 17, N-(4-((5-(3-(3-tert-Butyl-1-(4-methoxyphenyl)-1H-pyrazol-5-yl)ureido)quinolin-8-yloxy)methyl)pyridin-2-yl)-2-methoxyacetamide], the IC50 in data set [1] was 54.2 nM; at p38 MAPKγ (MAPK12), above 16400 nM; in data set [2], above 1640 nM; in data set [4], 17100 nM; in data set [5], above 1640 nM. In addition, the EC50 in data set [3] was found to be 16200 nM. The “MTT Assay (Viability) 4 h d-U937, percentage loss of cell viability” value in data set [6] is −11.5%. Also, in data set [6], the “MTT Assay (Viability) 24 h d-U937, percentage loss of cell viability” value is reported as 4.0%.

As to `CNC(=O)Nc1cc(COc2ccc(NC(=O)Nc3cc(C(C)(C)C)nn3-c3ccc(OC)cc3)c(Cl)c2Cl)ccn1` [Example 18, 1-(3-tert-Butyl-1-(4-methoxyphenyl)-1H-pyrazol-5-yl)-3-(2,3-dichloro-4-((2-(3-methylureido)pyridin-4-yl)methoxy)phenyl)urea], the IC50 in data set [1] is 29.4 nM; on p38 MAPKγ (MAPK12), above 16300 nM; in data set [2], 4.7 nM; in data set [4], 48.4 nM; in data set [5] it was 343 nM. Besides, the EC50 in data set [3] worked out at 6.7 nM. Also, the “MTT Assay (Viability) 4 h d-U937, percentage loss of cell viability” value in data set [6] is listed as 39.5%. The “MTT Assay (Viability) 24 h d-U937, percentage loss of cell viability” value in data set [6] is −4.6%.

As for `Cc1ccc(-n2nc(C(C)(C)C)cc2NC(=O)Nc2ccc(OCc3ccnc(NC(=O)N4CCCC4)c3)c(Cl)c2Cl)cc1` [Example 19, N-(4-((4-(3-(3-tert-Butyl-1-(p-tolyl)-1H-pyrazol-5-yl)ureido)-2,3-dichlorophenoxy)methyl)pyridin-2-yl)pyrrolidine-1-carboxamide], the IC50 worked out at 18.5 nM in data set [1]; 4370 nM on p38 MAPKγ (MAPK12); 12.3 nM in data set [2]; 837 nM in data set [4]; 23.7 nM in data set [5]. Besides, the EC50 in data set [3] amounted to 25.6 nM. In addition, the “MTT Assay (Viability) 4 h d-U937, percentage loss of cell viability” value in data set [6] is −13.5%. Further, the “MTT Assay (Viability) 24 h d-U937, percentage loss of cell viability” value in data set [6] came out at 6.9%.

Take `COc1ccc(-n2nc(C(C)(C)C)cc2NC(=O)Nc2ccc(OCc3ccnc(NC(=O)N4CCCC4)c3)c(Cl)c2Cl)cc1` [Example 20, N-(4-((4-(3-(3-tert-Butyl-1-(4-methoxyphenyl)-1H-pyrazol-5-yl)ureido)-2,3-dichlorophenoxy)methyl)pyridin-2-yl)pyrrolidine-1-carboxamide]: the IC50 in data set [1] is 30.7 nM; on p38 MAPKγ (MAPK12), above 15300 nM; in data set [2], 45.2 nM; in data set [4] it was 1060 nM; in data set [5], 16.5 nM. Also, the EC50 in data set [3] stood at 69.5 nM. Besides, in data set [6], the “MTT Assay (Viability) 4 h d-U937, percentage loss of cell viability” value is reported as −19.1%. The “MTT Assay (Viability) 24 h d-U937, percentage loss of cell viability” value in data set [6] was 9.6%.

Take `CNC(=O)Nc1cc(COc2ccc(NC(=O)Nc3cc(C(C)(C)C)nn3-c3ccc(C)cc3)c3cccnc23)ccn1` [Example 21, 1-(3-tert-Butyl-1-p-tolyl-1H-pyrazol-5-yl)-3-(8-((2-(3-methylureido)pyridin-4-yl)methoxy)quinolin-5-yl)urea]: the IC50 in data set [1] is 81.5 nM; at p38 MAPKγ (MAPK12), above 17300 nM; in data set [2], 1770 nM; in data set [4], 12900 nM; in data set [5], above 1730 nM. Also, in data set [3], the EC50 stood at 164 nM. In data set [6], the “MTT Assay (Viability) 4 h d-U937, percentage loss of cell viability” value stood at 14.5%. Besides, the “MTT Assay (Viability) 24 h d-U937, percentage loss of cell viability” value in data set [6] was −12.0%.

As to `CN(C)CCCC(=O)Nc1cc(Oc2ccc(NC(=O)Nc3cc(C(C)(C)C)nn3-c3ccc(CO)cc3)c(Cl)c2Cl)ncn1` [Example 22], the IC50 in data set [1] is 7.6 nM; at p38 MAPKγ (MAPK12), 20.6 nM; in data set [2], 1.1 nM; in data set [4], 33.8 nM; in data set [5] it was 4.9 nM. The EC50 in data set [3] was found to be 1.5 nM. In data set [6], the “MTT Assay (Viability) 4 h d-U937, percentage loss of cell viability” value is reported as −20.9%. Besides, the “MTT Assay (Viability) 24 h d-U937, percentage loss of cell viability” value in data set [6] turned out to be 85.2%.

Consider `COCC(=O)Nc1nccc(Oc2ccc(NC(=O)Nc3cc(C(C)(C)C)nn3-c3ccc(OC)cc3)c(Cl)c2Cl)n1` [Example 23, N-(4-(4-(3-(3-tert-Butyl-1-(4-methoxyphenyl)-1H-pyrazol-5-yl)ureido)-2,3-dichlorophenoxy)pyrimidin-2-yl)-2-methoxyacetamide], for which the IC50 in data set [1] turned out to be 15.7 nM; on p38 MAPKγ (MAPK12) it was 47.9 nM; in data set [2] it was 2.2 nM; in data set [4], 11.9 nM; in data set [5], 2 nM. Moreover, the EC50 in data set [3] was determined as 0.3 nM. In addition, the “MTT Assay (Viability) 4 h d-U937, percentage loss of cell viability” value in data set [6] is −37.1%. Further, the “MTT Assay (Viability) 24 h d-U937, percentage loss of cell viability” value in data set [6] was −24.5%.

`CNC(=O)Nc1nccc(Oc2ccc(NC(=O)Nc3cc(C(C)(C)C)nn3-c3ccc(CO)cc3)c(Cl)c2Cl)n1` [Example 25, 1-(4-(4-(3-(3-tert-Butyl-1-(4-(hydroxymethyl)phenyl)-1H-pyrazol-5-yl)ureido)-2,3-dichlorophenoxy)pyrimidin-2-yl)-3-methylurea]: the IC50 is 10.7 nM in data set [1]; 139 nM at p38 MAPKγ (MAPK12); 1.7 nM in data set [2]; 2.5 nM in data set [4]; 10.8 nM in data set [5]. For the same compound, in data set [3], the EC50 was 1.2 nM. Further, the “MTT Assay (Viability) 4 h d-U937, percentage loss of cell viability” value in data set [6] is listed as −3.5%. Moreover, the “MTT Assay (Viability) 24 h d-U937, percentage loss of cell viability” value in data set [6] is reported as 58.6%.
